Source: patent publication US20150182550A1, “INHIBITORS OF THE INTERACTION OF THE SIGMA-1 RECEPTOR WITH hERG FOR USE IN THE TREATMENT OF CANCER” (CENTRE NATIONAL DE LA RECHERCHE SCIENTIFIQUE - CNRS, priority 2011, published 2015)

Columns and labels:
hERG channels = experiment: Whole-cell patch-clamp of hERG tail currents in K562 cells; conditions: 10 μM
Method: “Patch-clamp” electrophysiology experiments were carried out in the whole cell configuration. […] This protocol makes it possible to record transient inward currents, the amplitude of which correlates with the depolarization involved during the prepulses. […] (FIGS. 1A,B).
In order to verify a potential interaction between Sig1R and hERG, the effects of selective Sig1R ligands, i.e. igmesine and (+)pentazocine were analyzed with respect to the current. […] The effects of igmesine (10 μM) were then studied on I/V curves recorded at from −70 to 40 mV.
Patch-clamp experiments were then carried out in the K562 shRD and shSig1R cell lines in order to analyze the possible consequences of Sig1R silencing on the properties of hERG.

K562 cells = experiment: Adhesion of K562 cells to fibronectin (FN); format: cell-based, human; conditions: for FN-dependent specific cell adhesion: wild-type K562 cells, 10 μM
Text: FIGS. 8A-8B represents the inhibition of the adhesion of K562 cells to FN by igmesine, E-4031 and Sig1R silencing. […] The values represent the mean±standard error of 6 to 9 independent experiments. NS: not significant (Student's t test). […] The values represent the mean±standard error of 12 independent experiments. ***p<0.001 (Student's t test). In one experiment, each value is the mean of three distinct wells.
The role of the Sig1R/hERG interaction on integrin-dependent cell adhesion to the extracellular matrix (ECM) has been tested in vitro. The expression of a single integrin subtype, i.e. integrin α5β1, has been reported in K562 cells. This integrin has a high affinity for fibronectin (FN), a component of the extracellular matrix (ECM). […] In the wild-type cells, the hERG channel blocker (E-4031) and igmesine inhibited FN-dependent specific cell adhesion. […] Likewise, the Sigma ligands no longer have any effect on the adhesion of the shSig1R cells (not represented).

CC(C)=CCN1CCC2(C)c3cc(O)ccc3CC1C2C (single isomer, unassigned; (+)) [(+)pentazocine]
effect of extracellular application on hERG currents (hERG channels; K562 cells): reversibly inhibited | hERG current reduced by (hERG channels; extracellular application, tail current at −120 mV, K562 cells): 21.19±1.77%

Cc1cccc(CCN2CCC(C(=O)c3ccc(NS(C)(=O)=O)cc3)CC2)n1 [E-4031]
FN-dependent specific cell adhesion (K562 cells): inhibited

CCC(C/C=C/c1ccccc1)(c1ccccc1)N(C)CC1CC1 (stereo not shown) [igmesine]
additive effect on adhesion to FN compared with E-4031 alone (K562 cells; E4031+igmesine 10 μM each, K562 cells): did not produce an additive effect | FN-dependent specific cell adhesion (K562 cells): inhibited | hERG current reduced by (hERG channels; human): 40.85±2.83% | shift towards the left of the half-activation voltage value (hERG channels; human): ~10 mV
